From patent US8795222B2, “Device and method for treatment of surface infections with nitric oxide” (Pulmonox Technologies Corp., priority 2000, dated 2014)

Columns and labels:
Assay in all cases: Bacteriocidal time study, 200 ppm gNO, saline suspension
Type in all cases: cell-based
Klebsiella sp. #3 = tested on: Klebsiella sp. #3
Procedure: (§1) Following the dose and time ranging studies, a series of experiments were performed to determine the time required to effectively induce a bacteriocidal effect with 200 parts per million of gNO, a concentration just above the dose used in the dose-ranging study, on a representative collection of drug resistant gram-positive and gram-negative strains of bacteria associated with clinical infection. A successful bacteriocidal effect was defined as a decrease in bacteria greater than 3 log10 cfu/ml. Further, C. albicans, Methicillin Resistant S. aureus (MRSA), a particularly resistant strain of P. aeruginosa from a cystic fibrosis patient, Group B Streptococcus, and M. smegmatis were also included to see if yeast, multi-drug resistant strains of bacteria, and actinomycetes have a similar response. The drug-resistant bacteria represent a variety of pathogens that contribute to both respiratory and wound infections.
(§2) For these experiments, saline was selected as a suspension media because it would not mask the direct effect of gNO as a bacteriocidal, whereas fully supplemented growth medium might introduce external variables (e.g., buffer or react with gNO). Other media might also provide metabolites and replenish nutrients that produce enzymes that protect bacteria from oxidative and nitrosative damage, thereby masking the effect of gNO. […] In saline, the colonies were static but remained viable. This is similar to the approach of Webert and Jean's use of animal models. Webert K E, et al (2000), Effects of inhaled nitric oxide in a rat model of Pseudomonas aeruginosa pneumonia, Crit. Care Med, 28(7):2397-2405 and Jean D, et al., (2002) Beneficial effects of nitric oxide inhalation on pulmonary bacterial clearance, Critical Care Medicine. 30(2):442-7.
(§3) The latent period was then followed by an abrupt death of all cells. Gram negative and gram positive bacteria, antibiotic resistant bacterial strains, yeast and mycobacteria were all susceptible to 200 ppm gNO. Of importance, is the observation that the two drug resistant bacteria strains were also susceptible.

Kiebsiella sp. #2 = tested on: Kiebsiella sp. #2
Procedure: as §1, §2, §3

E. coli = tested on: E. coli
Procedure: as §1, §2, §3

S. maltophilia = tested on: S. maltophilia
Procedure: as §1, §2, §3

P. aeruginosa (ATCC) = tested on: P. aeruginosa (ATCC)
Procedure: as §1, §2, §3

S. aureus (ATCC) = tested on: S. aureus (ATCC)
Procedure: as §1, §2, §3

Serracia sp. = tested on: Serracia sp.
Procedure: as §1, §2, §3

## [N]=O [gNO, nitric oxide]
Klebsiella sp. #3
  LD100: 6 h
  Latent Period*: 3 h
Klebsiella sp. #3; time to −2.5 log10 cfu/ml
  −2.5 Log10: 5.1 hrs
Kiebsiella sp. #2
  LD100: 5 h
  Latent Period*: 2 h
Kiebsiella sp. #2; time to −2.5 log10 cfu/ml
  −2.5 Log10: 4.1 hrs
E. coli
  LD100: 5 h
  Latent Period*: 3 h
E. coli; time to −2.5 log10 cfu/ml
  −2.5 Log10: 4.2 hrs
S. maltophilia
  LD100: 4 h
  Latent Period*: 2 h
S. maltophilia; time to −2.5 log10 cfu/ml
  −2.5 Log10: 2.8 hrs
P. aeruginosa (ATCC)
  LD100: 3 h
  Latent Period*: 1 h
P. aeruginosa (ATCC); time to −2.5 log10 cfu/ml
  −2.5 Log10: 2.1 hrs
S. aureus (ATCC)
  LD100: 4 h
  Latent Period*: 3 h
S. aureus (ATCC); time to −2.5 log10 cfu/ml
  −2.5 Log10: 3.3 hrs
Serracia sp.
  LD100: 6 h
  Latent Period*: 4 h
Serracia sp.; time to −2.5 log10 cfu/ml
  −2.5 Log10: 4.9 hrs
